{"source": "paper PMC12141164", "about": "“Phase-1 study of vamotinib (PF-114), a 3rd generation BCR::ABL1 tyrosine kinase-inhibitor, in chronic myeloid leukaemia” (Annals of Hematology, 2025)", "key": {"dogs": {"tested_on": "dogs", "set-up": "method as in PMID 25394714", "settings": "pre-clinical toxicology; cited from earlier work"}, "ZAK": {"tested_on": "ZAK", "settings": "kinase inhibition profiles; cited from earlier work"}, "EPHA6": {"tested_on": "EPHA6", "settings": "kinase inhibition profiles; cited from earlier work"}, "[1]": {"tested_on": "subjects with BCR::ABL1 positive CML", "settings": "for SAE: Upper respiratory tract infection: Relation to study drug No", "protocol": "Open-label phase-1 study at 3 clinical centers with dose-escalation using a 3 + 3 scheme with a starting dose of 50 mg/d given continuously. A 28-days of therapy was defined as a cycle. Dose escalation for the subsequent cohort depended on the results of the safety assessment of subjects in the preceding cohort during the 28 days of therapy. Once an MTD was identified expanded cohorts of 10–15 subjects were recruited at doses of interest below the MTD. A modified accelerated dose-escalation regimen was used up to a dose of 400 mg. Dose could be increased for subjects in whom the dose was reduced because of an adverse drug reaction (ADR). Severity of adverse events was assessed using NCI CTC AE v4 [28].\nThe primary objective was to determine the MTD and DLT of vamotinib during the 1st cycle of therapy. Secondary objectives were to assess the safety and tolerability of vamotinib, determine pharmacokinetics and determine efficacy by response criteria according to 2013 ELN [29].\nSafety set consists of all patients, who at least once took the study drug.\nPopulation for DLT evaluation consists of all patients, who received sufficient amount of the study drug during Cycle 1 for adequate DLT assessment.\nThe sufficient amount of the drug is determined as the intake of ≥ 75 % of the scheduled dose during Cycle 1, except for doses missed due to the DLT."}, "VEGFR2": {"tested_on": "VEGFR2", "settings": "kinase inhibition profiles; cited from earlier work"}, "TIE2": {"tested_on": "TIE2", "settings": "kinase inhibition profiles; cited from earlier work"}, "EPHA7": {"tested_on": "EPHA7", "settings": "kinase inhibition profiles; cited from earlier work"}, "TAK1": {"tested_on": "TAK1", "settings": "kinase inhibition profiles; cited from earlier work"}, "animals": {"tested_on": "animals", "settings": "cited from earlier work"}, "rats": {"tested_on": "rats", "set-up": "method as in PMID 25394714", "settings": "pre-clinical toxicology; cited from earlier work"}}, "note": "Like-named read-outs stand apart in the source and are kept apart here."}
{"smiles": "Cc1ccc(C(=O)Nc2ccc(CN3CCN(C)CC3)c(C(F)(F)F)c2)cc1C#Cc1nnc2ccccn12", "note": "[vamotinib]", "values": [{"measurement": "Rash", "setting": "dogs", "result": "Rash was seen"}, {"measurement": "inhibition of ZAK", "setting": "ZAK", "result": "not"}, {"measurement": "inhibition of EPHA6", "setting": "EPHA6", "result": "not"}, {"measurement": "SAE: Infections and infestations", "setting": "[1]; Cohort 1 50 mg N=3", "result": "0 n (%)"}, {"measurement": "SAE: Infections and infestations", "setting": "[1]; Cohort 2 100 mg N=3", "result": "0 n (%)"}, {"measurement": "SAE: Infections and infestations", "setting": "[1]; Cohort 3 200 mg N=11", "result": "0 n (%)"}, {"measurement": "SAE: Infections and infestations", "setting": "[1]; Cohort 4 400 mg N=12", "result": "0 n (%)"}, {"measurement": "SAE: Infections and infestations", "setting": "[1]; Cohort 5 500 mg N=3", "result": "0 n (%)"}, {"measurement": "SAE: Infections and infestations", "setting": "[1]; Cohort 6 600 mg N=6", "result": "2 (33.3)/2 n (%)"}, {"measurement": "SAE: Infections and infestations", "setting": "[1]; Cohort 7 750 mg N=4", "result": "0 n (%)"}, {"measurement": "SAE: Infections and infestations", "setting": "[1]; Cohort 8 300 mg N=9", "result": "3 (33.3)/3 n (%)"}, {"measurement": "SAE: Infections and infestations", "setting": "[1]; Overall N=51", "result": "5 (9.8)/5 n (%)"}, {"measurement": "SAE: Upper respiratory tract infection", "setting": "[1]; Cohort 1 (50 mg) N=3", "result": "0 n (%)"}, {"measurement": "SAE: Upper respiratory tract infection", "setting": "[1]; Cohort 2 (100 mg) N=3", "result": "0 n (%)"}, {"measurement": "SAE: Upper respiratory tract infection", "setting": "[1]; Cohort 3 (200 mg) N=11", "result": "0 n (%)"}, {"measurement": "SAE: Upper respiratory tract infection", "setting": "[1]; Cohort 4 (400 mg) N=12", "result": "0 n (%)"}, {"measurement": "SAE: Upper respiratory tract infection", "setting": "[1]; Cohort 5 (500 mg) N=3", "result": "0 n (%)"}, {"measurement": "SAE: Upper respiratory tract infection", "setting": "[1]; Cohort 6 (600 mg) N=6", "result": "1 (16.7)/1 n (%)"}, {"measurement": "SAE: Upper respiratory tract infection", "setting": "[1]; Cohort 7 (750 mg) N=4", "result": "0 n (%)"}, {"measurement": "SAE: Upper respiratory tract infection", "setting": "[1]; Cohort 8 (300 mg) N=9", "result": "0 n (%)"}, {"measurement": "SAE: Upper respiratory tract infection", "setting": "[1]; Overall N=51", "result": "1 (2.0)/1 n (%)"}, {"measurement": "Abdominal pain", "setting": "[1]; human, in vivo", "result": "2 (4) Number of subjects (percent)"}, {"measurement": "Abdominal pain upper", "setting": "[1]; human, in vivo", "result": "4 (8) Number of subjects (percent)"}, {"measurement": "Alanine aminotransferase increased", "setting": "[1]; human, in vivo", "result": "2 (4) Number of subjects (percent)"}, {"measurement": "Anal fissure", "setting": "[1]; human, in vivo", "result": "2 (4) Number of subjects (percent)"}, {"measurement": "Blood cholesterol increased", "setting": "[1]; human, in vivo", "result": "3 (6) Number of subjects (percent)"}, {"measurement": "Discontinued: adverse event", "setting": "[1]; human, in vivo", "result": 6}, {"measurement": "Discontinued: intolerable adverse drug reaction in the opinion of the investigator", "setting": "[1]; human, in vivo", "result": 2}, {"measurement": "Dry skin", "setting": "[1]; human, in vivo", "result": "9 (18) Number of subjects (percent)"}, {"measurement": "Dry skin and rash", "setting": "[1]; human, in vivo", "result": 8, "unit": "subjects"}, {"measurement": "Dry skin, Grade 3", "setting": "[1]; human, in vivo", "result": 0, "unit": "n"}, {"measurement": "Dry skin, Total", "setting": "[1]; human, in vivo", "result": 9, "unit": "n"}, {"measurement": "Dyspepsia", "setting": "[1]; human, in vivo", "result": "2 (4) Number of subjects (percent)"}, {"measurement": "Erythema", "setting": "[1]; human, in vivo", "result": "4 (8) Number of subjects (percent)"}, {"measurement": "Erythema, Grade 3", "setting": "[1]; human, in vivo", "result": 0, "unit": "n"}, {"measurement": "Erythema, Total", "setting": "[1]; human, in vivo", "result": 4, "unit": "n"}, {"measurement": "Eye disorders", "setting": "[1]; human, in vivo", "result": "3 (6) Number of subjects (percent)"}, {"measurement": "Gastrointestinal disorders", "setting": "[1]; human, in vivo", "result": "17 (33) Number of subjects (percent)"}, {"measurement": "Hepatitis toxic", "setting": "[1]; human, in vivo", "result": "1 (2) Number of subjects (percent)"}, {"measurement": "Hepato-biliary disorders", "setting": "[1]; human, in vivo", "result": "1 (2) Number of subjects (percent)"}, {"measurement": "Leukopenia", "setting": "[1]; human, in vivo", "result": "1 (2) Number of subjects (percent)"}, {"measurement": "Low density lipoprotein increased", "setting": "[1]; human, in vivo", "result": "2 (4) Number of subjects (percent)"}, {"measurement": "Nausea", "setting": "[1]; human, in vivo", "result": "6 (12) Number of subjects (percent)"}, {"measurement": "Pruritus, Grade 3", "setting": "[1]; human, in vivo", "result": 1, "unit": "n"}, {"measurement": "Pruritus, Total", "setting": "[1]; human, in vivo", "result": 5, "unit": "n"}, {"measurement": "Psoriasiform dermatitis, Grade 3", "setting": "[1]; human, in vivo", "result": 4, "unit": "n"}, {"measurement": "Psoriasiform dermatitis, Total", "setting": "[1]; human, in vivo", "result": 19, "unit": "n"}, {"measurement": "Rash", "setting": "[1]; human, in vivo", "result": 32, "unit": "subjects"}, {"measurement": "Rash papular", "setting": "[1]; human, in vivo", "result": "2 (4) Number of subjects (percent)"}, {"measurement": "Rash papular, Grade 3", "setting": "[1]; human, in vivo", "result": 0, "unit": "n"}, {"measurement": "Rash papular, Total", "setting": "[1]; human, in vivo", "result": 2, "unit": "n"}, {"measurement": "SAE: Acute sinusitis", "setting": "[1]; human, in vivo", "result": "1 (2.0)/1 n (%)"}, {"measurement": "SAE: Appendicitis", "setting": "[1]; human, in vivo", "result": "1 (2.0)/1 n (%)"}, {"measurement": "SAE: Atrial fibrillation", "setting": "[1]; human, in vivo", "result": "1 (2.0)/1 n (%)"}, {"measurement": "SAE: Cardiac disorders", "setting": "[1]; human, in vivo", "result": "1 (2.0)/1 n (%)"}, {"measurement": "SAE: Disease progression", "setting": "[1]; human, in vivo", "result": "1 (2.0)/1 n (%)"}, {"measurement": "SAE: General disorders and administration site conditions", "setting": "[1]; human, in vivo", "result": "1 (2.0)/1 n (%)"}, {"measurement": "SAE: Peritonitis", "setting": "[1]; human, in vivo", "result": "1 (2.0)/1 n (%)"}, {"measurement": "SAE: Pneumonia", "setting": "[1]; human, in vivo", "result": "1 (2.0)/1 n (%)"}, {"measurement": "Toxic skin eruption, Grade 3", "setting": "[1]; human, in vivo", "result": 7, "unit": "n"}, {"measurement": "Toxic skin eruption, Total", "setting": "[1]; human, in vivo", "result": 9, "unit": "n"}, {"measurement": "Transaminases increased", "setting": "[1]; human, in vivo", "result": "1 (2) Number of subjects (percent)"}, {"measurement": "dose-reduction because of rash", "setting": "[1]; human, in vivo", "result": 9, "unit": "n"}, {"measurement": "study withdrawal because of rash", "setting": "[1]; human, in vivo", "result": 6, "unit": "n"}, {"measurement": "time after which skin lesions were resolved", "setting": "[1]; human, in vivo", "result": "4–6 months"}, {"measurement": "time to resolution of skin toxicity after discontinuation of the drug", "setting": "[1]; human, in vivo", "result": "1–2 weeks"}, {"measurement": "DLTs", "setting": "[1]; human, in vivo, 28 days", "result": 4}, {"measurement": "dose-limiting toxicity (DLT)", "setting": "[1]; human, in vivo, 28 days", "result": "Grade-3 psoriasis-like skin toxicity"}, {"measurement": "dose-limiting toxicity (DLT)", "setting": "[1]; in vivo", "result": "rash"}, {"measurement": "inhibition of VEGFR2", "setting": "VEGFR2", "result": "not"}, {"measurement": "inhibition of TIE2", "setting": "TIE2", "result": "not"}, {"measurement": "inhibition of EPHA7", "setting": "EPHA7", "result": "not"}, {"measurement": "inhibition of TAK1", "setting": "TAK1", "result": "not"}, {"measurement": "arterial occlusive events", "setting": "animals; pre-clinical studies in animals", "result": "no arterial occlusive events"}, {"measurement": "cardio-vascular findings", "setting": "animals; pre-clinical toxicology studies", "result": "No cardio-vascular findings"}, {"measurement": "Rash", "setting": "rats", "result": "Rash was seen"}]}
